This is an account of results in patent US20140348748A1, “BETA-AMYLOID IMAGING AGENTS, METHODS OF MANUFACTURE, AND METHODS OF USE THEREOF” (priority 2011, published 2014).

For data set [1] the following is noted: after intravenous injection into rodent or monkey; cited from earlier work.
Data set [2] addresses beta-amyloid plaques in AD brain tissue (Homo sapiens, UniProt P05067). As to the kind of experiment: In vitro binding assay: competitive displacement of [3H]6-OH-BTA-1 in AD brain homogenate. The note with it: for Ki: [3H]6-OH-BTA-1 as reference radioligand, AD brain tissue. Here is the method: AD brain tissue was homogenized at 1:500 in PBS, and 800 μL suspension was used in each tube. [^3H]6-OH-BTA-1 with a concentration of 1 mCi/mL stock solution was diluted using ethanol to give an intermediate solution of 1 μCi/100 μL, which was further diluted using PBS to result in a dilute stock solution of 2.7×10^−2 μCi/100 μL, and 100 μL was used in each tube (2 vials with 100 μL of [^3H]6-OH-BTA-1 each and scintillation fluid as references). Cold 6-OH-BTA-1 or other displacer was dissolved in ethanol to result in a stock solution of 1×10^−3 M, which was further diluted using PBS or ethanol to result in solutions with concentrations ranging from 1×10^−5 to 10^−10 M, and 100 μL was used in each tube. After assembly, the tubes were vortexed, and incubated for 3 hrs at room temperature. After separation using a cell harvester, the filter paper (GF/B filter paper pretreated with 0.5% polyimine solution) was washed with 10% ethanol in PBS (3×3 mL). The filters were placed into 20 mL glass vials and 10 mL scintillation fluid each was added. After overnight incubation, the samples were counted. The data were analyzed using GraphPad Prism 4 or KaleidaGraph 3.6. […]
Some lipophilic ligands required ethanol in the medium to increase their solubility and to effect displacement of reference radioligand. […] This displacement curve was also analyzed using a homologous displacement mathematical model to extract the Bmax of the amyloid plaques. The measured Bmax is linear with the amount of amyloid used in the experiment. The ratio between Bmax and the amount of Aβ1-42 monomer measured by ELISA is about 1:2, somewhat less than that reported previously. […]
In this table, Ki is a measure (in nM units) of the binding affinity of the compound toward beta-amyloid plaques in AD brain tissue, measured through a competitive radioligand displacement in vitro assay using [^3H]6-OH-BTA-1 as the reference radioligand. The lipophilicity of the compound is represented by c Log D7.4 which is calculated through a software package (ACD/Log D version 8.0) at pH=7.4, a close mimic of physiological conditions. […]

Data set [3] relates to amyloid plaques in AD brain tissue slides. As to the kind of experiment: Autoradiography on post mortem human brain tissue slides. The class given is binding. The conditions noted are these: for binding in AD brain tissue slides (autoradiography): amyloid-loaded gray matter region; for radioactivity on healthy brain tissue (autoradiography): normal control brain tissue slides. The procedure:
Coronal sections of cerebrum from a confirmed case of AD (person, postmortem interval (PMI) 47.5 hours) and a normal control (person, PMI 28.5 hours) were frozen rapidly in an equal mixture of dry ice and isopentane, sealed in a plastic bag and stored at −76° C. before sectioning. Frozen blocks of the medial temporal lobe (hippocampal region) were sectioned at a thickness of 14 μm, mounted on gelatin-coated glass slides, dried and stored under desiccant at −76° C. Before use, slide-mounted tissue sections were removed from the freezer, thawed at room temperature for 20 min, and air-dried. Compounds 1.6, 1.5 and 1.4 (1.0 mg) were dissolved in DMSO (3.529 mL) resulting in a stock solution of 1 mM, which was then further diluted with DMSO to 0.1 mM and then diluted with PBS to 1 μM. The AD tissue and normal tissue slides were pretreated with either a stock solution of Compounds 1.6, 1.5, and 1.4 or PBS for 20 min at room temperature. All slides were incubated for 20 min at room temperature in [^11C]PIB formulation solution (0.3 mCi). They were then dipped in ethanol for 5 min. The slides were dried on a hot plate with a stream of cold air and placed in a cassette with the exposed sides facing up. The phosphor imaging plate was held with the blue side down. The entire cassette was placed in the dark at room temperature overnight for ^11C-labeling. Digital autoradiography was acquired using a FUJI BAS 5000 phosphorimager (FUJI, Tokyo, Japan) with a resolution of 25 μm.

Data set [4] in a line: Evaluation of radioligands in monkey in vivo with PET. Also noted: species or system rhesus monkey. The conditions noted are these: for brain uptake and washout (PET time-activity curves): intravenous, 18F-labelled. The procedure: A male rhesus monkey (15 kg) was initially immobilized with ketamine (15 mg/kg) and subsequently anesthetized with isoflurane (1.5%) for the duration of the experiment. The monkey was placed prone in the PET camera (HRRT, Siemens/CPS, Knoxyille, Tenn., USA). A fixation device was used to secure the monkey's head during scanning. A urinary catheter was inserted and clamped so that the activity overlaying the bladder represented the total urinary excretion during the scan. Electrocardiogram, body temperature, heart and respiration rates were measured throughout the experiment. Body temperature was controlled and monitored by a forced-air temperature management unit (Bair Hugger Model 505; Arizant Healthcare Inc.; MN, USA). The scanner consisted of eight flat panel detectors with a transaxial and axial coverage of 31.2 cm and 25.2 cm, respectively. The scanner is also equipped with dual-layered phoswich detector allowing depth-of-interaction. Dynamic PET scans were acquired in 64-bit list mode format, following the intravenous administration of Compound 1.6 (2.9 mCi). The scan lasted for 2 hours containing 33 frames with duration ranging from 30 seconds to 5 minutes. Data were reconstructed into a 256×256×207 image matrix (voxel size 1.21×1.21×1.23 mm), using a 3D list mode OSEM algorithm. The reconstructed image resolution was 2.5 mm. Transmission scan was acquired with a rotating ^137Cs point source for 6 minutes and used to correct for attenuation. A model-based scatter correction was applied. Tomographic images were analyzed with PMOD 2.6. Time activity curves (FIGS. 4-6) were calculated in % SUV for volume of interest (VOIs), defined by co-registration with MRI (see below), and compared for uptake and washout between different brain regions.
Co-registration of PET Data with MRI. All frames of the original reconstructed PET data were summed and then co-registered to a T1-weighted magnetic resonance (MR) image acquired separately on a 1.5 T Signa MR scanner (GE Medical Systems) with image analysis software MEDx (Sensor Systems Inc.; Sterling, Va., U.S.A.). The summed PET image was fused with the co-registered MR image with an image fusion tool in PMOD. Several VOIs for the source organs were then manually defined on this fused image with anatomical structures identified on the MR image.

Usually Ki stands for a measure of affinity in units of concentration, obtained from inhibition or displacement.

Chain of beta-amyloid plaques in AD brain tissue (P05067 672-711 limits assumed): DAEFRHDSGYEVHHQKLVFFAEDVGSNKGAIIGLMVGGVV

For `CN(CCF)c1ccc(-c2cn3cc(I)ccc3n2)cc1` [[^18F]FEM-IMPY, N-(2-fluoroethyl)-4-(6-iodo-H-imidazo[1,2-a]pyridin-2-yl)-N-methylbenzeneamine], the “SUV (standardized uptake value) of radioactivity in brain” value in data set [1] is “about 160 % I.D. kg/g”.
Regarding `CN(CCC[18F])c1ccc(-c2cn3cc(I)ccc3n2)cc1` [[^18F]FPM-IMPY], the “SUV (standardized uptake value) of radioactivity in brain” value in data set [1] is recorded as “about 160 % I.D. kg/g”.
`CNc1ccc(-c2nc3ccc(OC)cc3s2)nc1F` [Compound 1.5, 2-Fluoro-6-(6-methoxybenzo[d]thiazol-2-yl)-N-methylpyridin-3-amine] had a Ki in data set [2] of 10 nM. For the same compound, in data set [3], the “binding in AD brain tissue slides (autoradiography)” value is given as “clear displaceable binding” and the “radioactivity on healthy brain tissue (autoradiography)” value was “no radioactivity was observed”. Further, in data set [4] (normal male rhesus monkey), the “brain uptake and washout (PET time-activity curves)” value was “entered the brain very well and washed out fast”.
As to `CNc1ccc(-c2nc3ccc(O)cc3s2)nc1F` [Compound 1.6, 2-(6-Fluoro-5-(methylamino)pyridin-2-yl)benzo[d]thiazol-6-ol], the affinity in data set [2] corresponds to a Ki of 20 nM. Also, in data set [3], the “binding in AD brain tissue slides (autoradiography)” value is recorded as “clear displaceable binding” and the “radioactivity on healthy brain tissue (autoradiography)” value is listed as “no radioactivity was observed”. Besides, in data set [3] (summary statement), the “binding with amyloid plaques from autoradiography” value was “specific binding”. Further, in data set [4] (normal male rhesus monkey, PET), the “pharmacokinetics compared among the three radioligands” value is “most promising pharmacokinetics”. Besides, in data set [4] (normal male rhesus monkey), the “brain uptake and washout (PET time-activity curves)” value is “entered the brain very well and washed out fast”. The “time to uniform distribution of radioactivity after injection” value in data set [4] (normal monkey, PET) is on record as “less than 1 hour”.
As for `CNc1ccc(-c2nc3ccc(O)cc3s2)cc1` [Compound 6-OH-BTA-1, 2-[4-(methylamino)phenyl]-6-hydroxybenzothiazole, reference compound], the “displacement of reference radioligand” value in data set [2] ([3H]6-OH-BTA-1 displaced by non-radioactive ligand, isolated amyloid plaques) is greater than 95%.
